Reference: US7078437B2, “Apolipoprotein D degradation inhibitor” (Kao Corporation, priority 2003, dated 2006)

Tested on: apolipoprotein D
Assay: Inhibitory effect against degradation of apolipoprotein D (human sweat concentrate treated with Brevibacterium epiderumidis cells, western blot)
Type: biochemical
Details: human sweat concentrate as apolipoprotein-D-containing sample; Brevibacterium epiderumidis cells as protease, about 10^8 cfu/mL; 37° C. for 24 hours; antibody-staining after SDS-PAGE
Protocol: Inhibitory effects of lauric acid and oleic acid on degradation of apolipoprotein D were studied using a human sweat concentrate as an apolipoprotein-D-containing sample and Brevibacterium epiderumidis cells as a protease.
(1) Preparation of Sweat Samples
The absorbent cotton balls were squeezed, whereby a solution (57.5 mL) was collected. The collected solution was filtered through a 0.45-μm filter and then concentrated by use of a MILLIPOR Centriprep YM-10.
Distilled water was added again to the concentrate, and the resultant solution was concentrated in a similar manner by use of a Centriprep YM-10, to thereby remove substances of low molecular weight. The product was employed as a sweat concentrate.
(2) 100 mM Tris-HCl buffer (0.03 mL), distilled water (0.02 mL), and each of lauric acid (Sigma) and oleic acid (Sigma) were added to an aliquot (0.04 mL) of the sweat concentrate prepared through the above method (1). […] Briefly, the cell-treated sweat concentrate was subjected to SDS polyacrylamide electrophoresis (SDS-PAGE) by use of a Ready Gel J (15% of separation gel concentration, Bio-Rad Laboratories, Inc.), and the thus-separated proteins were electrically transcribed from the gel onto a PVDF filter (Millipore Corporation, Immobilon transfer membrane). […]

Compound | degradation of apolipoprotein D (percent residue of apolipoprotein D)
CCCCCCCCCCCC(=O)O [lauric acid] | degradation of apolipoprotein D was suppressed
CCCCCCCC/C=C\CCCCCCCC(=O)O [oleic acid] | degradation of apolipoprotein D was suppressed
